Assay results from US10294248B2, “Beta-lactamase inhibitors” (VenatoRx Pharmaceuticals, Inc., priority 2013, dated 2019).

Legend:
[1] = biological target: T1, SHV-5 β-lactamase (Class A ESBL) (Klebsiella pneumoniae, UniProt P0A3M1); experiment: β-Lactamase inhibition, SHV-5; type: biochemical
T1 construct: made in house; host or cells: E. coli BL21(DE3)
Description: (§1) For SHV-5, Kpc-2, p99AmpC and OXA-1 β-lactamases, E. coli BL21(DE3) bacterial cells carrying expression plasmids (expressed as native untagged proteins) for the individual β-lactamases were grown in 1 L of Superbroth (Teknova Inc. Hollister, Calif.) supplemented with 100 μg/ml kanamycin selection and 1×5052 (0.5% glycerol, 0.05% glucose and 0.2% α-lactose) at 35° C. for 18-20 hours. Cells were harvested by centrifugation (4,000×g, 4° C., 20 min), resuspended in 50 ml of 10 mM HEPES pH 7.5 ( 1/20 of the initial volume). The cells were lysed by sonication (5 pulses of 45 seconds) at 45 W on ice. The lysates were clarified by centrifugation at 10,000×g for 40 minutes at 4° C. Samples were diluted 5-fold in 50 mM sodium acetate pH 5.0, stored overnight at 4° C., after which they were centrifuged at 10,000×g for 30 minutes to clarify, and filtered through 0.45 μm filters. The samples were loaded onto a 5 ml Capto S sepharose cation exchange column (GE Healthcare) pre-equilibrated with 50 mM sodium acetate pH 5.0. The column was washed with 5 column volumes of 50 mM sodium acetate pH 5.0 to wash out unbound protein and a linear gradient of NaCl (0 to 500 mM) was used to elute the protein (over 16 CV) from the column. Fractions were assayed for β-lactamase activity using Centa (Calbiochem, Gibbstown, N.J.) or Nitrocefin (EMD Millipore chemicals, Darmstadt, Germany) as a reporter β-lactamase substrate for activity in the isolated fractions. Active fractions were pooled, concentrated and further purified by gel filtration chromatography on a Superdex 75 prep grade gel filtration column (GE Healthcare, Piscataway, N.J.) pre-equilibrated in 50 mM Hepes pH 7.5, 150 mM NaCl. Active fractions were pooled concentrated, quantitated by BCA protein determination (Thermo Scientific, Rockford, Ill.), dialyzed into PBS and frozen at −80° C. in 20% glycerol until use.
(§2) An equal volume of diluted enzyme stock was added, and the plates were incubated at 37° C. for 15 min. Nitrocefin was used as substrate for p99 AmpC, VIM-2 and OXA-1 and dispensed into each well at a final concentration of 100 μM. Absorbance at 486 nm was immediately monitored for 10 min using a Biotek Powerwave XS2 microplate spectrophotometer using the GEN5 software package (Biotek Instruments, Winooski Vt.). In an analogous fashion, imipenem was used as substrate for Kpc-2 and Cefotaxime was used for SHV-5, while changes in absorbance upon hydrolysis of the β-lactam ring were monitored at 300 nm and 260 nm respectively in UV-transparent 96-well microtiter assay plates. Maximum rates of hydrolysis were compared to those in control wells (without inhibitors), and percentages of enzyme inhibition were calculated for each concentration of inhibitor. The concentration of inhibitor needed to reduce the initial rate of hydrolysis of substrate by 50% (IC50) was calculated as the residual activity of β-lactamase at 486 nm using GraFit version 7 kinetics software package (Erithacus Software, Surrey, UK).
(§3) Using the methodology described above, examples of the current invention were evaluated for their ability to inhibit β-lactamase enzymes from all four Ambler classifications (A through D). […] NT=Not tested.

[2] = biological target: T2, KPC-2 β-lactamase (Class A carbapenemase) (Klebsiella pneumoniae, UniProt Q9F663); experiment: β-Lactamase inhibition, KPC-2; type: biochemical; details: imipenem substrate, 300 nm; 15 min preincubation at 37° C., PBS pH 7.4
T2 construct: made in house; host or cells: E. coli BL21(DE3)
Description: as §1, §2, §3

[3] = biological target: T3, VIM-2 metallo-β-lactamase (Class B) (Pseudomonas aeruginosa, UniProt Q9K2N0); experiment: β-Lactamase inhibition, VIM-2; type: biochemical; details: nitrocefin 100 μM, 486 nm; 15 min preincubation at 37° C., PBS pH 7.4
T3 construct: made in house; host or cells: E. coli BL21(DE3)
Description: For Vim-2 metallo β-lactamase, the procedure was identical with the following exceptions, first the protein was not pH adjusted to pH 5 with 50 mM sodium acetate, second, the chromatography step was changed to a 5 ml Q sepharose anion exchange column pre-equilibrated with 50 mM Hepes pH 7.5, and elution of the protein was achieved by a linear gradient of NaCl (0-600 mM). Finally, the VIM-2 purification required a second run (3rd step) on the Q sepharose anion exchange column to achieve acceptable purity (>90%).
as §2, §3

[4] = biological target: T4, p99 AmpC β-lactamase (Class C) (Enterobacter cloacae, UniProt P05364); experiment: β-Lactamase inhibition, p99 AmpC; type: biochemical
T4 construct: made in house; host or cells: E. coli BL21(DE3)
Description: as §1, §2, §3

[5] = biological target: T5, OXA-1 β-lactamase (Class D oxacillinase) (Escherichia coli, UniProt P13661); experiment: β-Lactamase inhibition, OXA-1; type: biochemical; details: nitrocefin 100 μM, 486 nm; 15 min preincubation at 37° C., PBS pH 7.4
T5 construct: made in house; host or cells: E. coli BL21(DE3)
Description: as §1, §2, §3

[6] = system: E. coli ESBL4 expressing CTX-M-15; experiment: Broth microdilution MIC, E. coli ESBL4 CTX-M-15; type: cell-based; details: fixed 4 μg/mL ceftazidime; CAMHB, 16-20 hours at 37° C.
In short: (§4)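 Visual MIC readout follows 16-20 h incubation at 37° C. Final compound range spans 32 down to 0.25 μg/ml in two-fold steps, each well also carrying a β-lactam at a static 4 μg/ml, with inoculation done by the CLSI microdilution method in cation-adjusted Mueller Hinton broth.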

[7] = system: E. cloacae 144200 expressing Class C P99 AmpC; experiment: Broth microdilution MIC, E. cloacae 144200 p99 AmpC; type: cell-based; details: fixed 4 μg/mL ceftazidime; CAMHB, 16-20 hours at 37° C.
In short: as §4

[8] = system: K. pneumoniae 156319 expressing KPC-3; experiment: Broth microdilution MIC, K. pneumoniae 156319 KPC-3; type: cell-based; details: fixed 4 μg/mL meropenem; CAMHB, 16-20 hours at 37° C.
In short: as §4

[9] = system: P. aeruginosa Ps296 expressing VIM-2; experiment: Broth microdilution MIC, P. aeruginosa Ps296 VIM-2; type: cell-based; details: fixed 4 μg/mL meropenem; CAMHB, 16-20 hours at 37° C.
In short: as §4

[10] = system: K. pneumoniae A-1797 expressing KPC-2 and VIM-4; experiment: Broth microdilution MIC, K. pneumoniae A-1797 KPC-2/VIM-4; type: cell-based; details: fixed 4 μg/mL meropenem; CAMHB, 16-20 hours at 37° C.
In short: as §4

[11] = system: S. aureus MSSA-7 producing penicillinase PC-1; experiment: Broth microdilution MIC, S. aureus MSSA-7 PC-1; type: cell-based; details: fixed 4 μg/mL piperacillin; CAMHB, 16-20 hours at 37° C.
In short: as §4

T1 sequence (P0A3M1 22-286): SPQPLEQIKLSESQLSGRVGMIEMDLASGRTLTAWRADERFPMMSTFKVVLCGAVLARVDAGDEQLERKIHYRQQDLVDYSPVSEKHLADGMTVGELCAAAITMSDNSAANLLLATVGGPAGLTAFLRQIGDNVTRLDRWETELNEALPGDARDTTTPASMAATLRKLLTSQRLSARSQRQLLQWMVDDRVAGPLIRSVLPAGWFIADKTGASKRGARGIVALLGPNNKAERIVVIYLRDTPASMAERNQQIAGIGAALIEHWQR
T5 sequence (P13661 26-276): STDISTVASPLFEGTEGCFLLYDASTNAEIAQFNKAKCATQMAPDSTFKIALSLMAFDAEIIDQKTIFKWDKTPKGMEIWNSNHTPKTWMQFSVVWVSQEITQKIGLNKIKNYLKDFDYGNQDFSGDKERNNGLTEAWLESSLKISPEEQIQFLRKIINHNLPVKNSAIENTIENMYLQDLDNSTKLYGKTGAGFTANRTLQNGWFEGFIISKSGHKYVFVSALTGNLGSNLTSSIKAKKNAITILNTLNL
T4 sequence (P05364 21-381): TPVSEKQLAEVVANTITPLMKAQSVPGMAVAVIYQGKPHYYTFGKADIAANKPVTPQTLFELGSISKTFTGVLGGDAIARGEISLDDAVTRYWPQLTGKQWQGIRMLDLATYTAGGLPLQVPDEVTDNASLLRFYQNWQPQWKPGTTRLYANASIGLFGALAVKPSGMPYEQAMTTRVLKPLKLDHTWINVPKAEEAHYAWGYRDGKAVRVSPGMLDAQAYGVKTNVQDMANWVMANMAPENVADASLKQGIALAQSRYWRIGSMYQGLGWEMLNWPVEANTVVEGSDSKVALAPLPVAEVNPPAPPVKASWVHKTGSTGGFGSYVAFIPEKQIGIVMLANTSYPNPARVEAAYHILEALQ
T2 sequence (Q9F663 25-293, looked up): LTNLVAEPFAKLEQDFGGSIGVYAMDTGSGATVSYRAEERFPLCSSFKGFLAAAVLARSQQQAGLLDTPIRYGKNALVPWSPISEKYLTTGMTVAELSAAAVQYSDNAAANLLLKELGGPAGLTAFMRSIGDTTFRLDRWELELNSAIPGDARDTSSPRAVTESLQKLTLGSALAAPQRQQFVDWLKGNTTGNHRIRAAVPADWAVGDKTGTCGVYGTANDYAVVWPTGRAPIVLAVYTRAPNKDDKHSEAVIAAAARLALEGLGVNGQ

Compound	IC50 [1] [nM]	IC50 [2] [nM]	IC50 [3] [nM]	IC50 [4] [nM]	IC50 [5] [nM]	MIC of example compound in presence of fixed β-lactam: Fixed CAZ, E. coli ESBL4 CTX-M-15 [6]	MIC of example compound in presence of fixed β-lactam: Fixed CAZ, E. cl. 144200 p99 AmpC [7]	MIC of example compound in presence of fixed β-lactam: Fixed Mero, K. P. 156319 KPC-3 [8]	MIC of example compound in presence of fixed β-lactam: Fixed Mero, P. aerug. Ps296 VIM-2 [9]	MIC of example compound in presence of fixed β-lactam: Fixed Mero, K. P. A-1797 KPC-2 VIM-4 [10]	MIC of example compound in presence of fixed β-lactam: Fixed Pip, S. aureus MSSA-7 PC-1 [11]
O=C(CN1CCN(CCO)CC1)N[C@H]1Cc2cccc(C(=O)O)c2OB1O [Example 18, 2-Hydroxy-3-{2-[4-(2-hydroxy-ethyl)-piperazin-1-yl]-acetylamino}-3,4-dihydro-2H-benzo[e][1,2]oxaborinine-8-carboxylic acid]	100 to 1000	100 to 1000	100 to 1000	< 100	< 100	B (the MIC in the presence of between 8 and 32 μg/mL of a β-lactamase inhibitor)	C (the MIC in the presence of <4 μg/mL of a β-lactamase inhibitor)	C (the MIC in the presence of <4 μg/mL of a β-lactamase inhibitor)	B (the MIC in the presence of between 8 and 32 μg/mL of a β-lactamase inhibitor)	B (the MIC in the presence of between 8 and 32 μg/mL of a β-lactamase inhibitor)	A (an MIC of the fixed β-lactam antibiotic in the presence of >32 μg/mL of a β-lactamase inhibitor)
N=C(N)NCCN1CCC(CCC(=O)N[C@H]2Cc3cccc(C(=O)O)c3OB2O)CC1 [Example 34, 3-{3-[1-(2-Guanidino-ethyl)-piperidin-4-yl]-propionylamino}-2-hydroxy-3,4-dihydro-2H-benzo[e][1,2]oxaborinine-8-carboxylic acid]	< 100	100 to 1000	10000 to 100000	100 to 1000	100 to 1000	C (the MIC in the presence of <4 μg/mL of a β-lactamase inhibitor)	C (the MIC in the presence of <4 μg/mL of a β-lactamase inhibitor)	A (an MIC of the fixed β-lactam antibiotic in the presence of >32 μg/mL of a β-lactamase inhibitor)	A (an MIC of the fixed β-lactam antibiotic in the presence of >32 μg/mL of a β-lactamase inhibitor)	A (an MIC of the fixed β-lactam antibiotic in the presence of >32 μg/mL of a β-lactamase inhibitor)	C (the MIC in the presence of <4 μg/mL of a β-lactamase inhibitor)
O=C(CN1CCN(c2ccccn2)CC1)N[C@H]1Cc2cccc(C(=O)O)c2OB1O [Example 2, 2-Hydroxy-3-[2-(4-pyridin-2-yl-piperazin-1-yl)-acetylamino]-3,4-dihydro-2H-benzo[e][1,2]oxaborinine-8-carboxylic acid]	< 100	100 to 1000	1000 to 10000	< 100	100 to 1000	C (the MIC in the presence of <4 μg/mL of a β-lactamase inhibitor)	C (the MIC in the presence of <4 μg/mL of a β-lactamase inhibitor)	B (the MIC in the presence of between 8 and 32 μg/mL of a β-lactamase inhibitor)	A (an MIC of the fixed β-lactam antibiotic in the presence of >32 μg/mL of a β-lactamase inhibitor)	A (an MIC of the fixed β-lactam antibiotic in the presence of >32 μg/mL of a β-lactamase inhibitor)	C (the MIC in the presence of <4 μg/mL of a β-lactamase inhibitor)
NCCN1CCN(CC(=O)N[C@H]2Cc3cccc(C(=O)O)c3OB2O)CC1 [Example 16, 3-{2-[4-(2-Amino-ethyl)-piperazin-1-yl]-acetylamino}-2-hydroxy-3,4-dihydro-2H-benzo[e][1,2]oxaborinine-8-carboxylic acid]	< 100	100 to 1000	1000 to 10000	< 100	< 100	C (the MIC in the presence of <4 μg/mL of a β-lactamase inhibitor)	C (the MIC in the presence of <4 μg/mL of a β-lactamase inhibitor)	C (the MIC in the presence of <4 μg/mL of a β-lactamase inhibitor)	C (the MIC in the presence of <4 μg/mL of a β-lactamase inhibitor)	B (the MIC in the presence of between 8 and 32 μg/mL of a β-lactamase inhibitor)	C (the MIC in the presence of <4 μg/mL of a β-lactamase inhibitor)
NCC1CN(CC(=O)N[C@H]2Cc3cccc(C(=O)O)c3OB2O)CCC1N (stereo partly shown) [Example 29, 3-[2-(4-Amino-3-aminomethyl-piperidin-1-yl)-acetylamino]-2-hydroxy-3,4-dihydro-2H-benzo[e][1,2]oxaborinine-8-carboxylic acid]	1000 to 10000	100 to 1000	10000 to 100000	100 to 1000	100 to 1000	C (the MIC in the presence of <4 μg/mL of a β-lactamase inhibitor)	C (the MIC in the presence of <4 μg/mL of a β-lactamase inhibitor)	C (the MIC in the presence of <4 μg/mL of a β-lactamase inhibitor)	C (the MIC in the presence of <4 μg/mL of a β-lactamase inhibitor)	B (the MIC in the presence of between 8 and 32 μg/mL of a β-lactamase inhibitor)	C (the MIC in the presence of <4 μg/mL of a β-lactamase inhibitor)
